{"source": "patent US10533018B2", "about": "“Antimicrobial prochelators to target drug-resistant bacteria and methods of making and using the same” (Duke University, priority 2015, dated 2020)", "key": {"[1]": {"test_system": "several strains", "conditions": "concentrations below 1 mM", "description": "[39, 40] […] To control for the impact of copper alone, the cultures of 5 bacterial strains were subjected to a serial dilution of CuCl2. […] [41] To control for the impact of limited Cu, several strains were also challenged with a serial dilution of BCS."}, "[2]": {"test_system": "E. coli", "format": "cell-based", "conditions": "at 52 μM DB4-51", "description": "Further evidence for the influence of bioavailable copper on the IC50 of DB4-51 was obtained by using a checkerboard assay. […] Serial dilutions of DB4-51 in LB were arrayed against dilutions of chelator (BCS and EDTA). The antagonism exists between our prochelator, DB4-51, and the strong, extracellular chelators BCS and EDTA. […] However, at lower concentrations, EDTA works antagonistically with DB4-51 by restoring bacterial growth. This trend further underscores the influence that copper and potentially other metals have on the growth inhibitory activity of DB4-51."}}}
{"smiles": "Cc1cc(-c2ccc(S(=O)(=O)O)cc2)c2ccc3c(-c4ccc(S(=O)(=O)O)cc4)cc(C)nc3c2n1", "note": "[BCS, bathocuproine disulfonate]", "values": [{"measurement": "effect on bacterial growth", "setting": "[1]", "result": "did not inhibit bacterial growth"}, {"measurement": "concentration that restored E. coli growth", "setting": "[2]", "result": "≥ 125", "unit": "µM"}]}
